# Laboratory results from PubChem BioAssay (NCI).
#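 Cells were grown in 96-well plates and exposed to each compound for 48 hours at five concentrations; endpoints were interpolated linearly between bracketing concentrations, or set to the highest concentration if not reached. Definition used: TGI = concentration required for complete inhibition of growth.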 Where a SMILES comes first, the peptide text is derived from it. The star is where a group is joined. ONb = O=[N+]([O-])c1ccc(CO*)cc1; Boc = CC(C)(C)OC(=O)*
# Legend:
# Assay in all cases: growth of human tumour cells (NCI), 48 h
# SR leukemia = tested on: SR leukemia
# 786-0 renal = tested on: 786-0 renal
# A549 NSCLC = tested on: A549 NSCLC
# MDA-MB-231 breast = tested on: MDA-MB-231 breast
# RXF 393 renal = tested on: RXF 393 renal
# SF-295 CNS = tested on: SF-295 CNS
# EKVX NSCLC = tested on: EKVX NSCLC
# UO-31 renal = tested on: UO-31 renal
# CAKI-1 renal = tested on: CAKI-1 renal
# A498 renal = tested on: A498 renal
# UACC-257 melanoma = tested on: UACC-257 melanoma
Structure (SMILES),TGI (SR leukemia),TGI (786-0 renal),TGI (A549 NSCLC),TGI (MDA-MB-231 breast),TGI (RXF 393 renal),TGI (SF-295 CNS),TGI (EKVX NSCLC),TGI (UO-31 renal),TGI (CAKI-1 renal),TGI (A498 renal),TGI (UACC-257 melanoma)
Cc1ccc(O)c(-c2cc(-c3cccc(Cl)c3)c(C#N)c(N)n2)c1,30.3 µM,46 µM,43.4 µM,54.4 µM,47.8 µM,32.6 µM,58.9 µM,52.8 µM,> 100 µM,,
Fc1ccc2nc3n(c2c1)C(c1c(Cl)cccc1Cl)SC3 (centres undefined),> 100 µM,> 100 µM,> 100 µM,> 100 µM,> 100 µM,> 100 µM,,> 100 µM,> 100 µM,> 100 µM,> 100 µM
O=C(O)c1cn2c3c(cc(N4CCN(CCO)CC4)cc3c1=O)SCC2,,,> 100 µM,,> 100 µM,> 100 µM,> 100 µM,> 100 µM,> 100 µM,> 100 µM,> 100 µM
COC(=O)c1ccc(C)cc1/C=C1\Cc2ccc(C)cc2C1=O,9.13 µM,50 µM,98.4 µM,,31.9 µM,41.1 µM,88.4 µM,26.3 µM,94.3 µM,47.9 µM,51.5 µM
COc1ccc(/C=C2\CCC(CNc3ccc(OC)cc3)C2=O)cc1 (centres undefined),,23.2 µM,> 94.1 µM,35.7 µM,29.9 µM,> 31.6 µM,> 73.5 µM,36.1 µM,41 µM,> 66 µM,34.5 µM
COC(=O)C1CCC(=O)N1C(c1ccc(OC)cc1)c1ccc(OC)cc1 (centres undefined),> 100 µM,> 100 µM,> 100 µM,> 100 µM,,> 100 µM,> 100 µM,> 100 µM,> 100 µM,> 100 µM,> 100 µM
N=c1c2c(-c3ccccc3)c[nH]c2ncn1N,,> 100 µM,> 100 µM,> 100 µM,,> 100 µM,> 100 µM,> 100 µM,> 100 µM,> 100 µM,> 100 µM
Cc1c2cnccc2c(C)c2c1c1ccccc1n2CCCCCCNCc1ccccc1,,,3.74 µM,,4.08 µM,3.47 µM,3.94 µM,3.79 µM,3.48 µM,3.85 µM,3.61 µM
CCOC(=O)C(Cl)(NC(=O)c1c(F)c(F)c(F)c(F)c1F)C(F)(F)F (centres undefined),> 100 µM,> 100 µM,> 100 µM,> 100 µM,> 100 µM,> 100 µM,> 100 µM,> 100 µM,36.4 µM,,> 100 µM
CC1OC(O[C@H]2C3C=CO[C@@H](OC4OC(CO)C(O)C(O)C4O)C3[C@@]3(COC(=O)/C=C/c4ccc(O)cc4)O[C@@H]23)C(O)C(O)C1O (some centres undefined),,> 100 µM,> 100 µM,> 100 µM,> 100 µM,> 100 µM,> 100 µM,> 100 µM,> 100 µM,> 100 µM,> 100 µM
CNC(=O)N(C)COC,> 100 µM,,> 100 µM,,,> 100 µM,> 100 µM,> 100 µM,> 100 µM,> 100 µM,> 100 µM
O=C1CCCC/C1=C\c1ccc(Br)cc1,> 100 µM,30.9 µM,67.7 µM,37.7 µM,,49.7 µM,62.8 µM,29.6 µM,32.1 µM,,70.3 µM
Cc1ccc(-n2[nH]nc(C#N)c2=O)cc1,,> 100 µM,> 100 µM,> 100 µM,> 100 µM,> 100 µM,> 100 µM,> 100 µM,> 100 µM,,> 100 µM
CCCCNC(=S)Nc1nc(C(=O)NNC(=S)NC2CCCCC2)cs1,35.4 µM,> 100 µM,> 100 µM,> 100 µM,,> 100 µM,> 100 µM,> 100 µM,> 100 µM,> 100 µM,> 100 µM
CC(C)CC(NC(=O)OC(C)(C)C)C(=O)NC(CCC(=O)OCc1ccc([N+](=O)[O-])cc1)C(=O)OCc1ccc([N+](=O)[O-])cc1 (stereo not drawn) (Boc-Leu-Glu(ONb)-ONb; configuration not given here),37.1 µM,71.5 µM,,> 100 µM,,> 100 µM,> 100 µM,> 100 µM,> 100 µM,> 100 µM,> 100 µM
N#CCCN(CCC#N)c1ccc(/C=C2\N=C(c3ccccc3)N(NC(N)=S)C2=O)cc1,,> 100 µM,> 100 µM,> 100 µM,> 100 µM,> 100 µM,> 100 µM,> 100 µM,> 100 µM,> 100 µM,> 100 µM
